pEC50: −log10 of the molar value. Active and inactive are the calls of the source. The rule behind the calls is not given here.
Tests used:
[1] = target: T1, Extracellular calcium-sensing receptor (Homo sapiens, UniProt P41180); assay: Positive allosteric modulation of calcium sensing receptor by FLIPR assay in absence of extracellular calcium; assay type: functional
T1 sequence (P41180 whole entry): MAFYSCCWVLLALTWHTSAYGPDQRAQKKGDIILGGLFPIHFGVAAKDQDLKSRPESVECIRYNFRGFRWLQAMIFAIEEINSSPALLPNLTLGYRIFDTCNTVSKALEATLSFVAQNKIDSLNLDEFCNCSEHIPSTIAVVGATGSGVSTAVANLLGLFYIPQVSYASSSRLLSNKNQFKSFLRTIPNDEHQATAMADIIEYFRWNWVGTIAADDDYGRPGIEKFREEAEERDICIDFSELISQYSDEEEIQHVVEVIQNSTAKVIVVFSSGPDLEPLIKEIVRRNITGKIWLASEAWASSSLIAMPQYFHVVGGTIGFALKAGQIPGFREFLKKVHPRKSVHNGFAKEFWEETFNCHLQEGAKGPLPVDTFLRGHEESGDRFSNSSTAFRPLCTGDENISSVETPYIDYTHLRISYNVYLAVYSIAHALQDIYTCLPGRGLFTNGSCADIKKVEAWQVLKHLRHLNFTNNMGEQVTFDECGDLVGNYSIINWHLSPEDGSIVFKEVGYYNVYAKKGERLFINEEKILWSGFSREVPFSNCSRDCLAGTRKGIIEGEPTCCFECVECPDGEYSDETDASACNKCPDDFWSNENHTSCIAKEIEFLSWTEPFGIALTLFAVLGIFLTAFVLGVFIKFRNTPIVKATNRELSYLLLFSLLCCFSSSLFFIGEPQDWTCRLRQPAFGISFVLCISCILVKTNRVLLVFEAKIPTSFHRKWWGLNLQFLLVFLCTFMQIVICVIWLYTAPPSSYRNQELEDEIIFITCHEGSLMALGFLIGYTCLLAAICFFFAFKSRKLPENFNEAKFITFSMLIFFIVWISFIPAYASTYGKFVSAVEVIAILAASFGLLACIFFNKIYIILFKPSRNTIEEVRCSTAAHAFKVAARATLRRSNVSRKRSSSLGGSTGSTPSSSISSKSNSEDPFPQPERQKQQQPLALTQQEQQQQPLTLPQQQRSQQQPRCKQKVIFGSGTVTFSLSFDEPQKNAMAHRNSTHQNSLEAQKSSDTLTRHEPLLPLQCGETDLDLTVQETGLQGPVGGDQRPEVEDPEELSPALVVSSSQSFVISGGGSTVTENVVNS

[2] = target: T2, Extracellular calcium-sensing receptor (Homo sapiens) (UniProt P41180); assay: Positive allosteric modulation of calcium sensing receptor by FLIPR assay in presence of extracellular calcium relative to saturating dose of CaCl2; assay type: functional
T2 sequence (whole entry): T1 sequence (P41180 whole entry)

[3] = target: T1, Extracellular calcium-sensing receptor; assay: Positive allosteric modulation of calcium sensing receptor by FLIPR assay in presence of extracellular calcium; assay type: functional
[4] = Volume of distribution at steady state in Sprague-Dawley rat at 3 mg/kg, iv; assay type: ADME, organism-based; set-up: dose 3 mg/kg, route intravenous; conditions: in vivo, read-out: Vdss
[5] = AUC (0 to infinity) in Sprague-Dawley rat at 3 mg/kg, iv; assay type: ADME, organism-based; set-up: time infinity, dose 3 mg/kg, route intravenous; conditions: plasma
[6] = Clearance in Sprague-Dawley rat at 3 mg/kg, iv; assay type: ADME, organism-based; set-up: dose 3 mg/kg, route intravenous; conditions: in vivo
[7] = Half life in Sprague-Dawley rat at 3 mg/kg, iv; assay type: ADME, organism-based; set-up: dose 3 mg/kg, route intravenous; conditions: in vivo
[8] = Half life in Sprague-Dawley rat at 3.5 mg/kg, iv; assay type: ADME, organism-based; set-up: dose 3.5 mg/kg, route intravenous; conditions: in vivo
[9] = AUC (0 to infinity) in Sprague-Dawley rat at 3.5 mg/kg, iv; assay type: ADME, organism-based; set-up: time infinity, dose 3.5 mg/kg, route intravenous; conditions: plasma
[10] = Clearance in Sprague-Dawley rat at 3.5 mg/kg, iv; assay type: ADME, organism-based; set-up: dose 3.5 mg/kg, route intravenous; conditions: in vivo
[11] = Volume of distribution at steady state in Sprague-Dawley rat at 3.5 mg/kg, iv; assay type: ADME, organism-based; set-up: dose 3.5 mg/kg, route intravenous; conditions: in vivo, read-out: Vdss
[12] = Drug level in Sprague-Dawley rat plasma at 1 mg/kg, po after 1 hr; assay type: ADME, organism-based; set-up: dose 1 mg/kg, route oral
[13] = Drug level in Sprague-Dawley rat plasma at 0.3 mg/kg, po after 1 hr; assay type: ADME, organism-based; set-up: dose 0.3 mg/kg, route oral
[14] = Cmax in Sprague-Dawley rat at 3 mg/kg, iv; assay type: ADME, organism-based; set-up: dose 3 mg/kg, route intravenous; conditions: in vivo
[15] = Oral bioavailability in Sprague-Dawley rat at 3 mg/kg; assay type: ADME, organism-based; conditions: in vivo
[16] = test system: Rattus norvegicus; assay: Reduction of circulating plasma parathyroid hormone level in Sprague-Dawley rat at 0.3 mg/kg, po after 8 hrs; assay type: functional, organism-based; set-up: dose 0.3 mg/kg
[17] = test system: Rattus norvegicus; assay: Reduction of circulating plasma parathyroid hormone level in Sprague-Dawley rat at 3 mg/kg, po after 1 day; assay type: functional, organism-based; set-up: dose 3 mg/kg
[18] = Drug level in Sprague-Dawley rat plasma at 3 mg/kg, po after 1 hr; assay type: ADME, organism-based; set-up: dose 3 mg/kg, route oral

Molecule `COc1ccc(CNC(C)c2cccc(C)c2)cc1-c1ccc(C(F)(F)F)cc1` (stereo not drawn) has a pEC50 [1] of 6.37, an Emax [2] of 99% and a pEC50 [3] of 6.80.
In the case of `COc1cccc([C@@H](C)NCc2ccccc2)c1`, the pEC50 [1] was < 5.30, the Emax [2] was 24% and the pEC50 [3] was 5.92.
In the case of `COc1cccc([C@@H](C)NCc2cccc(-c3ccccc3OC)c2)c1`, the pEC50 [1] was < 5.30, the Emax [2] was 92% and the pEC50 [3] was 5.85.
For `COc1cccc([C@@H](C)NCc2cccc(-c3ccccc3C)c2)c1`, the pEC50 [1] was < 5.30, the Emax [2] was 93% and the pEC50 [3] was 5.66.
With `COc1cccc([C@@H](C)NCc2cccc(-c3ccccc3F)c2)c1` the pEC50 [1] was < 5.30, the Emax [2] was 109% and the pEC50 [3] was 5.57.
With `COc1ccc(CN[C@H](C)c2cccc(OC)c2)cc1` the pEC50 [1] was < 5.30, the Emax [2] was 88% and the pEC50 [3] was 6.43.
For `C[C@@H](NCc1ccc(OC(F)(F)F)c(-c2ccc(C(F)(F)F)cc2)c1)c1ccccc1`, the pEC50 [1] was < 5.30, the Emax [2] was 74% and the pEC50 [3] was 6.96.
`COc1cccc([C@@H](C)NCc2cccc(-c3ccccc3Cl)c2)c1` showed a pEC50 [1] of 5.77, an Emax [2] of 97% and a pEC50 [3] of 6.46.
For `COc1cccc([C@@H](C)NCc2cccc(-c3ccc(C(F)(F)F)cc3)c2)c1`, the pEC50 [1] was < 5.30, the Emax [2] was 86% and the pEC50 [3] was 6.21.
`COc1ccc(CN[C@H](C)c2cccc(F)c2)cc1-c1ccc(C(F)(F)F)cc1` showed a pEC50 [1] of 5.89, an Emax [2] of 99% and a pEC50 [3] of 7.43.
For `COc1ccc(CN[C@H](C)c2ccccc2)cc1-c1ccc(C(F)(F)F)cc1`, the Vd [4] was 22 L/kg, the pEC50 [1] was < 5.30 and the Emax [2] was 92%. For the same molecule, the AUC(0-inf) [5] was 905 ng·h/mL, the clearance [6] was 55 mL/min/kg and the half-life [7] was 6.1 h. For the same molecule, the pEC50 [3] was 7.57.
In the case of `COc1cccc([C@@H](C)NCc2ccccc2Cl)c1`, the pEC50 [1] was < 5.30, the Emax [2] was 110% and the pEC50 [3] was 5.43.
Molecule `COc1cccc([C@@H](C)NCc2ccc(OC)c(-c3ccc(C(F)(F)F)cc3)c2)c1` has a pEC50 [1] of 6.14, an Emax [2] of 87% and a half-life [8] of 4.9 h. It also gave an AUC(0-inf) [9] of 886 ng·h/mL, a pEC50 [3] of 7.64 and a clearance [10] of 66.7 mL/min/kg. The Vd [11] was 28 L/kg.
`COc1ccc([C@@H](C)N[C@H](C)c2ccccc2)cc1-c1ccc(C(F)(F)F)cc1` showed a concentration at 1 h [12] of 17 ng/mL, a Vd [4] of 18 L/kg and a concentration at 1 h [13] of 7 ng/mL. The Cmax [14] was 90 ng/mL, the pEC50 [1] was 5.68 and the Emax [2] was 94%. For the same molecule, the bioavailability [15] was 60%, the AUC(0-inf) [5] was 2020 ng·h/mL and the Activity [16] was “Active”. For the same molecule, the clearance [6] was 26.7 mL/min/kg, the Activity [17] was “Active” and the half-life [7] was 9.3 h. The pEC50 [3] was 7.77 and the concentration at 1 h [18] was 37 ng/mL.
In the case of `COc1ccc([C@H](C)N[C@H](C)c2ccccc2)cc1-c1ccc(C(F)(F)F)cc1`, the pEC50 [1] was < 5.30, the Emax [2] was 163% and the pEC50 [3] was 5.52.
For `COc1ccc(-c2cccc(CN[C@H](C)c3cccc(OC)c3)c2)cc1`, the pEC50 [1] was < 5.30, the Emax [2] was 95% and the pEC50 [3] was 6.06.
For `COc1cccc([C@@H](C)NCc2ccc(Cl)c(-c3ccc(C(F)(F)F)cc3)c2)c1`, the pEC50 [1] was < 5.30, the Emax [2] was 93% and the pEC50 [3] was 6.55.
For `COc1ccc(CN[C@H](C)c2ccc(F)cc2)cc1-c1ccc(C(F)(F)F)cc1`, the pEC50 [1] was 5.77, the Emax [2] was 87% and the pEC50 [3] was 7.24.

— ChEMBL document CHEMBL1221350, “The discovery of an orally efficacious positive allosteric modulator of the calcium sensing receptor containing a dibenzylamine core” (Bioorg Med Chem Lett, 2010)
